This is an account of results in patent publication US10526371B2, “Hydrogel-forming peptides” (Universiteit Gent, priority 2015, dated 2020).

The subject of data set [1] is elastase. Description: Enzymatic degradation study of peptides in non-gelating conditions. The settings on record: peptide 350 μM, elastase 60 μM, 37° C. It is filed as in vitro ADME. The method, then: The following biodegradation experiments were performed in order to assess biostability of peptides of the invention toward elastase, a prominent enzyme present in the subcutaneous compartment.
The following buffer was used to assay the proteolytic stability of the peptides towards elastase: 10 mM PBS at pH 7.2. First, a stock solution of elastase (60 μM in 10 mM PBS) was prepared. Peptides SEQ ID NO 1, 2 and 3 and reference α-peptide SEQ ID NO 23 were subjected to the degradation study and prepared as a stock solution of 350 μM in mQ water (with a resistivity of […]). Enzymatic degradation was carried out by incubation of peptide (900 μL, 350 μM) with the enzyme (150 μL, 60 μM) at 37° C. for 7 days. To preclude any pH-dependent effects on the enzyme's activity, the pH value was kept at pH 6.9±0.5 in all degradation experiments.
The enzyme concentration was selected such that the reference α-peptide SEQ ID NO 23 was completely degraded in less than 1 hour. In case of the α-peptide SEQ ID NO 23, aliquots (70 μL) were periodically taken at 0 min, 5 min, 10 min, 15 min, 20 min and 30 min, while for the mixed α/β-peptides aliquots (70 μL) were taken at 0 min, 20 min, 30 min, 1 h, 2 h, 5 h, 1 day, 2 days, 3 days, 4 days, 5 days and 6 days. 5 μL of 25% AcOH in water (v/v) were added and the degradation was monitored by HPLC analysis. After just 30 min of exposure to elastase, the reference α-peptide SEQ ID NO 23 was completely degraded. The enzymatic degradation of mixed α/β-peptides SEQ ID NO 1, SEQ ID NO 2 and SEQ ID NO 3 was remarkably slower and lasted several days. Mixed α/β-peptides SEQ ID NO 1 and SEQ ID NO 2 were completely consumed after 6 days whilst mixed α/β-peptide SEQ ID NO 1, SEQ ID NO 3 was degraded after 3 days.

Data set [2] has as its system elastase. As to the kind of experiment: Proteolytic stability of hydrogels (elastase solution on top of hydrogel). It is filed as in vitro ADME. The settings on record: for macroscopic aggregation / physical degradation: over 42 days; for time at which hydrogel changed into an opaque structure / gel degradation time (hydrogel unstable/fluid-like): elastase 60 μM in 10 mM PBS on top; for gel degradation time (hydrogel unstable/fluid-like): room temperature. The method, then:
(B) The proteolytic stability of the hydrogels was analyzed by placing an elastase solution (60 μM in 10 mM PBS) on top of the hydrogel. In all the stability experiments a total volume of 4 mL (gel+PBS solution with and without enzyme) was obtained. The addition of the enzyme solution on top of the hydrogel was set as the starting point of the gel-degradation experiments; B. At specific time-intervals (0 h, 24 h, 2 days, 3 days, 4 days, 5 days, 6 days, 7 days, 2 weeks, 3 weeks, etc.) the liquid portion on top of the hydrogel was removed using a pipette and the hydrogel's volume was estimated using following formula: VTotal−VLiquid portion=VHydrogel (1)
wherein VTotal is the total volume and remains at 4 mL and VLiquid portion is the volume measured of the liquid portion after each sampling interval. At each sampling interval the pH was also measured; C. A picture of the inverted glass tube, only containing the self-sustaining non-fluid-like hydrogel, was taken in order to assess the physical deformation of the hydrogel and volume-loss; D. The PBS, mQ or enzyme solution is gently replaced on top of the hydrogel using a pipette, allowing repetition of steps A-D. Between sampling-intervals the glass tubes were kept undisturbed at room temperature. The gel degradation time was defined as the period required for complete disintegration of the hydrogels into liquid under observation of the naked eye.
(C) In a next step, the stability and degradation profiles of the mixed α/β-hydrogels were investigated using this methodology. During the first hours after addition of the elastase to peptide SEQ ID NO 1 hydrogel, no apparent physical deformation was observed. The collected liquid portion (on top of the hydrogel) measured 3 mL (during the first 10 hours). […] In comparison to the α-peptide 1 hydrogel the degradation time of peptide SEQ ID NO 1 hydrogel was extended from 3.5 days to 5.5 days. However, the physical alteration of this hydrogel into an opaque structure was already observed after one day.

Data set [3] in a line: Peptide self-assembly / gelation conditions. It is filed as physicochemical. The settings on record: TFA salt. The method, then:
Peptide self-assembly was analyzed in i) a PBS solution (10 mM), ii) a PBS/mQ mixture (1:1 v:v, mQ water with a resistivity of […]) or iii) a NaCl aqueous solution (150 mM). The TFA salt of reference peptide SEQ NO. 23 (1 mg) was dissolved in 50 μl mQ water, followed by the addition of 50 μl PBS solution. This mixture was left to rest overnight, resulting in a 1% w/v hydrogel. The TFA salt of mixed α/β-peptides SEQ ID NO 1 and SEQ ID NO 2 (2 mg) was dissolved in mQ (100 μL) and PBS/mQ mixture (100 μL), respectively. […] The TFA salt of mixed α/β-peptide SEQ ID NO 3 (3 mg) was dissolved in PBS (100 μL) to probe gelation. All self-assembled gels were analyzed by circular dichroism (CD) and Fourier transform infrared (FT-IR) spectroscopy, as well as cryogenic transmission electron microscopy (Cryo-TEM).
(SEQ ID NO:22 (=10-mer)), 100 μl mQ water was added to 2 mg of TFA-salt of pure peptide, then vortexed and sonicated. As a result, a transparent self-supporting gel was formed immediately. A gelation condition of 2 w/v % in mQ water was found.
for H-Fβ^2hFEFQFK-NH2 (SEQ ID NO:19), 100 μl of PBS was added to 2 mg of TFA-salt of pure peptide, then vortexed and sonicated. After overnight resting, a self-supporting gel was formed. A gelation condition of 2 w/v % in PBS was determined.

The nature of data set [4]: Erosion / general stability of hydrogel without enzyme (PBS on top). Type of data set: physicochemical. The method, then: (A). The peptide hydrogel (1 mL) was prepared in a 10 mL glass tube using the appropriate gelation conditions (see peptide self-assembly in example 2). After leaving the hydrogel to rest overnight the degradation evaluation was started. First, general stability (without the incubation of an enzyme) was evaluated for α-peptide SEQ ID NO 23: 3 mL of mQ water was gently placed on top of the hydrogel and erosion experiments were performed by placing 3 mL PBS solution (10 mM) on top of the hydrogel to assess the hydrogels macroscopic decay in time. […] After 24 hours there was a small loss in volume (0.1 mL) of the formed hydrogel and the aggregation remained visible at the hydrogel surface. The PBS fraction was recollected and measured as 3.1 mL, in agreement with the 0.1 mL volume loss of the hydrogel. After 4 days the hydrogel was completely disintegrated into opaque aggregated pieces sticking to the bottom of the glass tube. The collected solution was measured to be 3.8 mL.

[5] abbreviates: 3 mL PBS on top, after 24 hours.

Where “and” joins values, the source holds several entries; their conditions need not be identical. Equal entries are not always repeated. Square brackets hold non-standard residues; d marks the D form. Peptide text beside a SMILES is read from it. β3hF = N[C@H](CC(=O)O)Cc1ccccc1

Take `NCCCC[C@H](NC(=O)[C@H](Cc1ccc(O)cc1)NC(=O)C[C@H](Cc1ccccc1)NC(=O)[C@H](CCC(N)=O)NC(=O)[C@H](Cc1ccc(O)cc1)NC(=O)C[C@H](Cc1ccccc1)NC(=O)[C@H](CCC(=O)O)NC(=O)[C@@H](N)Cc1ccccc1)C(N)=O` [SEQ ID NO 3, H-Phe-Glu-β^3hPhe-Tyr-Gln-β^3hPhe-Tyr-Lys-NH2] (H-FE[β3hF]YQ[β3hF]YK-NH2): in data set [1] (HPLC), the “time to complete degradation by elastase” value is reported as 3 days. Moreover, in data set [2] (hydrogel with elastase), the “physical stability: time without observable volume loss” value is reported as “over 42 days” and the “macroscopic aggregation / physical degradation” value is “no significant physical degradation nor aggregation”.

Turning to `NCCCC[C@H](NC(=O)[C@H](Cc1ccccc1)NC(=O)C[C@H](Cc1ccccc1)NC(=O)[C@H](CCC(N)=O)NC(=O)[C@H](Cc1ccccc1)NC(=O)C[C@H](Cc1ccccc1)NC(=O)[C@H](CCC(=O)O)NC(=O)[C@@H](N)Cc1ccccc1)C(=O)O` [SEQ ID NO 1, H-Phe-Glu-β^3hPhe-Phe-Gln-β^3hPhe-Phe-Lys-OH] (H-FE[β3hF]FQ[β3hF]FK-OH), the “time to complete degradation by elastase” value in data set [1] (HPLC) was 6 days and 3 days. Besides, the “collected liquid portion on top of the hydrogel” value in data set [2] (hydrogel with elastase, during the first 10 hours) is reported as 3 mL. In data set [2], the “time at which hydrogel changed into an opaque structure” value is on record as “one” and the “gel degradation time (hydrogel unstable/fluid-like)” value is 5.5 days.

For the compound “H-FEFQFK-OH [SEQ ID NO 23, H-FEFQFK-OH, reference compound]”, the “time to complete degradation by elastase” value in data set [1] (HPLC) is 0.0208 days. The “time to complete degradation by elastase” value in data set [1] (enzyme concentration selected for this) was “less than 1 hour”. For the same compound, the hydrogel concentration obtained in data set [3] (50 μl mQ water + 50 μl PBS, rest overnight) amounted to 1 % w/v. In data set [3] (at its own gelation condition), the “time of gelation (self-supporting gel formed)” value was “overnight”. For the same compound, the hydrogel volume in data set [4] (1 mL hydrogel, 3 mL PBS 10 mM on top, after 2 hours) is 1 mL. In data set [4] (setting [5]), the PBS fraction recollected came to 3.1 mL and the “loss in volume of hydrogel” value stood at 0.1 mL. The collected solution in data set [4] (3 mL PBS on top, after 4 days) is 3.8 mL. Also, the “time to complete disintegration of hydrogel” value in data set [4] (3 mL PBS on top, no enzyme) is reported as 4 days. Further, in data set [2], the “time at which hydrogel changed into an opaque structure” value stood at 2 days and the “gel degradation time (hydrogel unstable/fluid-like)” value is reported as 3.5 days.

On to `NCCCC[C@H](NC(=O)[C@H](Cc1ccccc1)NC(=O)C[C@H](Cc1ccccc1)NC(=O)[C@H](CCC(N)=O)NC(=O)[C@H](Cc1ccccc1)NC(=O)C[C@H](Cc1ccccc1)NC(=O)[C@H](CCC(=O)O)NC(=O)[C@@H](N)Cc1ccccc1)C(N)=O` [SEQ ID NO 2, H-Phe-Glu-β^3hPhe-Phe-Gln-β^3hPhe-Phe-Lys-NH2] (H-FE[β3hF]FQ[β3hF]FK-NH2), for which the “time to complete degradation by elastase” value in data set [1] (HPLC) was determined as 6 days. The “hydrogel volume relative to original volume” value in data set [2] (hydrogel with elastase, after 35 days) is recorded as “approximately half”. Further, the “macroscopic aggregation / physical degradation” value in data set [2] (hydrogel with elastase) was “no macroscopic aggregation was observed”.
